The source of these data is the supplement of paper PMC10627819.

Holding throughout (experiment): Bliss interaction score (quartile over a dose matrix) (fitness difference); higher = more antagonism (negative = synergy)
The test system of one experiment is B. subtilis 168. The method in brief:
(§1)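 OD595 was read at entry into stationary phase and expressed relative to the robust mean of the no-drug wells on the same plate, capped at 1. The resulting ratio is the fitness value. The Bliss score, observed fitness minus product-based expected fitness with single-drug fitness inferred from combinations, is summarised by quartiles over technical, biological and donor/recipient replicates.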

The test system of another experiment is S. aureus DSM 20231. The method in brief: as §1
The next experiment relates to S. aureus Newman. The method in brief:
as §1

The subject of a further experiment is S. pneumoniae D39V. The method in brief: as §1
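Note: first quartile when negative (synergy) and third quartile when positive (antagonism).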

Take `CN[C@H](CC(C)C)C(=O)N[C@H]1C(=O)N[C@@H](CC(N)=O)C(=O)N[C@H]2C(=O)N[C@H]3C(=O)N[C@H](C(=O)N[C@H](C(=O)O)c4cc(O)cc(O)c4-c4cc3ccc4O)[C@H](O[C@H]3C[C@](C)(N)[C@@H](O)[C@H](C)O3)c3ccc(c(Cl)c3)Oc3cc2cc(c3O[C@@H]2O[C@H](CO)[C@@H](O)[C@H](O)[C@H]2O[C@H]2C[C@](C)(NCc3ccc(-c4ccc(Cl)cc4)cc3)[C@@H](O)[C@H](C)O2)Oc2ccc(cc2Cl)[C@H]1O` [Oritavancin] + CN1C2=CC=CC=C2N=C3C1=CC=CC3=O [Pyocyanin]: the Bliss interaction score was -0.0238 with B. subtilis 168, -0.047 in the experiment with S. aureus DSM 20231, -0.105 with S. aureus Newman and -0.0208 in the experiment with S. pneumoniae D39V.
`CN[C@H](CC(C)C)C(=O)N[C@H]1C(=O)N[C@@H](CC(N)=O)C(=O)N[C@H]2C(=O)N[C@H]3C(=O)N[C@H](C(=O)N[C@H](C(=O)O)c4cc(O)cc(O)c4-c4cc3ccc4O)[C@H](O[C@H]3C[C@](C)(N)[C@@H](O)[C@H](C)O3)c3ccc(c(Cl)c3)Oc3cc2cc(c3O[C@@H]2O[C@H](CO)[C@@H](O)[C@H](O)[C@H]2O[C@H]2C[C@](C)(NCc3ccc(-c4ccc(Cl)cc4)cc3)[C@@H](O)[C@H](C)O2)Oc2ccc(cc2Cl)[C@H]1O` [Oritavancin] + CN(C)c1cc(NC(=O)CNC(C)(C)C)c(O)c2c1C[C@H]1C[C@H]3[C@H](N(C)C)C(O)=C(C(N)=O)C(=O)[C@@]3(O)C(O)=C1C2=O [Tigecycline]: the Bliss interaction score in the experiment on B. subtilis 168 was -0.0328; in the experiment with S. aureus DSM 20231, -0.0305; in the experiment on S. aureus Newman, -0.0634; with S. pneumoniae D39V, 0.0458.
The like results for `CN[C@H](CC(C)C)C(=O)N[C@H]1C(=O)N[C@@H](CC(N)=O)C(=O)N[C@H]2C(=O)N[C@H]3C(=O)N[C@H](C(=O)N[C@H](C(=O)O)c4cc(O)cc(O)c4-c4cc3ccc4O)[C@H](O[C@H]3C[C@](C)(N)[C@@H](O)[C@H](C)O3)c3ccc(c(Cl)c3)Oc3cc2cc(c3O[C@@H]2O[C@H](CO)[C@@H](O)[C@H](O)[C@H]2O[C@H]2C[C@](C)(NCc3ccc(-c4ccc(Cl)cc4)cc3)[C@@H](O)[C@H](C)O2)Oc2ccc(cc2Cl)[C@H]1O` [Oritavancin] + CN(N=O)C(=O)N[C@@H](C=O)[C@@H](O)[C@H](O)[C@H](O)CO [Streptozotocin] were, in that order, -0.0355, -0.0564, -0.063 and -0.0337.
The like results for `CN[C@H](CC(C)C)C(=O)N[C@H]1C(=O)N[C@@H](CC(N)=O)C(=O)N[C@H]2C(=O)N[C@H]3C(=O)N[C@H](C(=O)N[C@H](C(=O)O)c4cc(O)cc(O)c4-c4cc3ccc4O)[C@H](O[C@H]3C[C@](C)(N)[C@@H](O)[C@H](C)O3)c3ccc(c(Cl)c3)Oc3cc2cc(c3O[C@@H]2O[C@H](CO)[C@@H](O)[C@H](O)[C@H]2O[C@H]2C[C@](C)(NCc3ccc(-c4ccc(Cl)cc4)cc3)[C@@H](O)[C@H](C)O2)Oc2ccc(cc2Cl)[C@H]1O` [Oritavancin] + CN[C@@H]1[C@H](O)[C@H](NC)[C@H]2O[C@@]3(O)C(=O)C[C@@H](C)O[C@H]3O[C@@H]2[C@H]1O [Spectinomycin] were, in that order, -0.0238, -0.0487, -0.154 and 0.0219.
With `CN[C@H](CC(C)C)C(=O)N[C@H]1C(=O)N[C@@H](CC(N)=O)C(=O)N[C@H]2C(=O)N[C@H]3C(=O)N[C@H](C(=O)N[C@H](C(=O)O)c4cc(O)cc(O)c4-c4cc3ccc4O)[C@H](O[C@H]3C[C@](C)(N)[C@@H](O)[C@H](C)O3)c3ccc(c(Cl)c3)Oc3cc2cc(c3O[C@@H]2O[C@H](CO)[C@@H](O)[C@H](O)[C@H]2O[C@H]2C[C@](C)(NCc3ccc(-c4ccc(Cl)cc4)cc3)[C@@H](O)[C@H](C)O2)Oc2ccc(cc2Cl)[C@H]1O` [Oritavancin] + CN[C@@H]1[C@H](O[C@H]2[C@H](O[C@H]3[C@H](O)[C@@H](O)[C@H](N=C(N)N)[C@@H](O)[C@@H]3N=C(N)N)O[C@@H](C)[C@]2(O)C=O)O[C@@H](CO)[C@H](O)[C@H]1O [Streptomycin], the Bliss interaction score with B. subtilis 168 was -0.0219; in the experiment on S. aureus DSM 20231, -0.111; in the experiment on S. aureus Newman it was -0.138; with S. pneumoniae D39V, 0.0462.
Take `CN[C@H](CC(C)C)C(=O)N[C@H]1C(=O)N[C@@H](CC(N)=O)C(=O)N[C@H]2C(=O)N[C@H]3C(=O)N[C@H](C(=O)N[C@H](C(=O)O)c4cc(O)cc(O)c4-c4cc3ccc4O)[C@H](O[C@H]3C[C@](C)(N)[C@@H](O)[C@H](C)O3)c3ccc(c(Cl)c3)Oc3cc2cc(c3O[C@@H]2O[C@H](CO)[C@@H](O)[C@H](O)[C@H]2O[C@H]2C[C@](C)(NCc3ccc(-c4ccc(Cl)cc4)cc3)[C@@H](O)[C@H](C)O2)Oc2ccc(cc2Cl)[C@H]1O` [Oritavancin] + CN[C@H](CC(C)C)C(=O)N[C@H]1C(=O)N[C@@H](CC(N)=O)C(=O)N[C@H]2C(=O)N[C@H]3C(=O)N[C@H](C(=O)N[C@H](C(=O)O)c4cc(O)cc(O)c4-c4cc3ccc4O)[C@H](O)c3ccc(c(Cl)c3)Oc3cc2cc(c3O[C@@H]2O[C@H](CO)[C@@H](O)[C@H](O)[C@H]2O[C@H]2C[C@](C)(N)[C@H](O)[C@H](C)O2)Oc2ccc(cc2Cl)[C@H]1O [Vancomycin]: the Bliss interaction score with B. subtilis 168 is 0.0254; in the experiment with S. aureus DSM 20231, -0.0879; with S. aureus Newman it was -0.0787; with S. pneumoniae D39V it was 0.105.
On the same counts, the results for `CN[C@H](CC(C)C)C(=O)N[C@H]1C(=O)N[C@@H](CC(N)=O)C(=O)N[C@H]2C(=O)N[C@H]3C(=O)N[C@H](C(=O)N[C@H](C(=O)O)c4cc(O)cc(O)c4-c4cc3ccc4O)[C@H](O[C@H]3C[C@](C)(N)[C@@H](O)[C@H](C)O3)c3ccc(c(Cl)c3)Oc3cc2cc(c3O[C@@H]2O[C@H](CO)[C@@H](O)[C@H](O)[C@H]2O[C@H]2C[C@](C)(NCc3ccc(-c4ccc(Cl)cc4)cc3)[C@@H](O)[C@H](C)O2)Oc2ccc(cc2Cl)[C@H]1O` [Oritavancin] + CO[C@H]1/C=C/O[C@@]2(C)Oc3c(C)c(O)c4c(O)c(c(/C=N/N5CCN(C)CC5)c(O)c4c3C2=O)NC(=O)/C(C)=C\C=C\[C@H](C)[C@H](O)[C@@H](C)[C@@H](O)[C@@H](C)[C@H](OC(C)=O)[C@@H]1C [Rifampicin] are -0.0184, -0.0199, 0.0357 and 0.106.
